The assay relates to B16 murine melanocytes. As to the kind of experiment: Production of melanin by B16 murine melanocyte cell line. The format is cell-based. The settings on record: 72 hours, Kojic acid at 400 μg/mL. The protocol: In order to evaluate the potential beneficial effect of ingredients towards skin de- or pro-pigmentation we used 2D culture of murine melanocytes (B16) and we performed 2 tests: 1-assessment of melanin production and 2-assessment of tyrosinase production. 1. The Cell Culture Conditions. • B16 cells were cultured in DMEM 1 g/L glucose without phenol red supplemented with 10% foetal calf serum, in a humidified chamber at 37° C. and containing 5% CO2. 2. The Production of Melanin by B16 Murine Melanocyte Cell Line. • Cells were incubated with the selected ingredients or the test references (Kojic acid at 400 μg/mL) for 72 hours, in the presence or absence of NDP-MSH an analog of MSH. The total quantity of melanin (extracellular and intracellular) was evaluated by measurement of the optical density at 405 nm of each sample against melanin standards in presence or in absence of NDP-MSH. Chicoric acid has been pre-treated with La-1 [(spray dried culture Lactobacillus Johnsonii CNCM I-1225, 1.19E10 cfu/g) for 24 hours in a thermomixer at 40° C., under shaking conditions. After incubation, samples have been centrifuged 5 minutes at 3000 g. After this treatment the probiotic as such is not present anymore in the sample however the presence of its metabolites can't be excluded.

For the molecule `O=c1cc(CO)occ1O` [Kojic acid], the “Melanin content (effect in words)” value is on record as “decrease in melanin content”.
